We go through two compounds from publication PMC9611977 (Toxins, 2022).

One assay relates to muscle α1β1δε nAChR. Further details: method as in PMID 16571968. As to conditions: read-out: EC50 of ACh for α1β1δε; cited from earlier work.
The target of a further assay is T1, rat ASIC3 (Rattus norvegicus, UniProt O35240).
T1 construct: expressed in transfected cells; host or cells: Xenopus laevis oocytes (cRNA injection)
T1 sequence (O35240 1-533): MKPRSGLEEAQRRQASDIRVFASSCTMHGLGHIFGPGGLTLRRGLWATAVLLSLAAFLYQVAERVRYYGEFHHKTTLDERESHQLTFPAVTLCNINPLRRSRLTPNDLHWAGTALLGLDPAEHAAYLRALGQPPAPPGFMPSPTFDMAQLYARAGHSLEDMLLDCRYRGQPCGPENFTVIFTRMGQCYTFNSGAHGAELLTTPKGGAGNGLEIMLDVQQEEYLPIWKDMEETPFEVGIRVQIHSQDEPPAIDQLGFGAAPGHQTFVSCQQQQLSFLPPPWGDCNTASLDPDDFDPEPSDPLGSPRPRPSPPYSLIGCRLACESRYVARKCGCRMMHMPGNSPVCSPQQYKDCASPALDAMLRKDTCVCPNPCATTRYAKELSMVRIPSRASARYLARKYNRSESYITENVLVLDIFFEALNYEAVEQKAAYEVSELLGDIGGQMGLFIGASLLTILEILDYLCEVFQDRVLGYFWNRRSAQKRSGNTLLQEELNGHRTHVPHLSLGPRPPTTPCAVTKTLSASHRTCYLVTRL
Kind of assay: two-electrode voltage clamp on rASIC3 expressed in X. laevis oocytes. Format: cell-based. The method, then:
(§1) Rat ASIC1a and ASIC3 channels were expressed in X. laevis oocytes after injection of 2.5–10 ng of cRNA, as previously described. After injection oocytes were kept for 2–3 days at 19 °C and then up to 5 days at the temperature of 15–16 °C in sterile ND96 medium (96 mM NaCl, 2 mM KCl, 1.8 mM CaCl2, 1 mM MgCl2, 5 mM HEPES titrated to pH 7.4 with NaOH supplemented with 50 μg/mL of gentamycin). Two-electrode voltage clamp recordings were performed using GeneClamp 500 amplifier (Axon Instruments, Burlingame, CA, USA). The data were filtered at 50 Hz and digitized at 1000 Hz by an AD converter L780 (LCard, Moscow, Russia) using in-house software (Moscow). The solutions were applied to a cell chamber (volume 50 μL). The laminar flow of an external solution of ND96 (pH 7.4) was used at a rate of 1 mL/min. ASIC1a and ASIC3 were activated by a short (1 s) application of a solution with a pH 5.5 (10 mM MES) using a fast application system. Peptides were applied 15 s before the activation pulse in a solution containing 0.1% BSA. A value of currents inhibition was calculated as the ratio of the peak current amplitude, when the peptide was applied to the average amplitude of the control peak currents before and after the peptide application and expressed as a percentage. To construct the concentration-response curves, a logistic equation was the following: y = ((1 − A)/(1 + ([C]/IC50)^nH)) + A; where y is the relative value of current inhibition; C is the peptide concentration; IC50 is the half maximal inhibitory concentration; nH is the Hill coefficient; A is an amplitude of maximum inhibition (% of control).
On the technique in general: Two-electrode voltage clamp is typically applied to oocytes expressing channels or transporters.

The subject of a further assay is rat ASIC1a. The assay can be described thus: two-electrode voltage clamp on rASIC1a expressed in X. laevis oocytes. In kind it is cell-based. The following applies: maximal applied concentration 100 μM; pH drop 7.4 to 5.5. The method, then: as §1, with “To construct the concentration-response curves, a logistic equation was the following: y = ((1 − A)/(1 + ([C]/IC50)^nH)) + A; where y is the relative value of current inhibition; C is the peptide concentration; IC50 is the half maximal inhibitory concentration; nH is the Hill coefficient; A is an amplitude of maximum inhibition (% of control).” left out

A word on the EC50: it is the concentration needed to bring the measured effect to its halfway point. In general, IC50 refers to the point on the concentration scale where inhibition reaches its midpoint.

Bridge positions count the residues as written; N and C are the ends. Ends that are not written are not given here.

For the compound `CC(=O)OCC[N+](C)(C)C` [ACh, acetylcholine], the EC50 in the assay with muscle α1β1δε nAChR was ~5 µM.

“GTPCKCLGYTGVYWFMITRCPNGHGYNLSCPYFLGVCCVKK (disulfide 4-37, 6-30, 20-38) [Hmg 1b-5]” showed a half-maximal inhibitory concentration (IC50) on rat ASIC3 of 13.8 ± 0.6 µM. Moreover, on rat ASIC3 (100 μM peptide, pH drop 7.4 to 5.5), the “maximal inhibitory effect on rASIC3 acid-induced current” value is recorded as “about 78%”. In addition, on rat ASIC3 (logistic fit, n = 5), the “Hill coefficient nH, rASIC3 inhibition” value was determined as 1.22 ± 0.04. For the same compound, the “Iminimal, rASIC3 concentration-response fit” value on rat ASIC3 (logistic fit, n = 5, amplitude of maximum inhibition (% of control)) is 22.4 ± 1.3. The “inhibition of rASIC1a current” value in the assay on rat ASIC1a came out at 17%.
